Reference: PubChem BioAssay AID2060491 (Molecular Pharmacology Branch, DTP, NCI, 2025)
pIC50: −log10 of the molar value.

Tested on: 857933-349-R-J2-PDC complex spheroids, viability
Experiment: Anticancer human tumor 857933-349-R-J2-PDC patient-derived colon adenocarcinoma cell line growth inhibition [GQUAD]
Conditions: for pIC50: curve of first compound; for viability, T/C: stronger effect = lower value
From the text: DNA G-quadruplex Stabilizer Agents in Combinations in Complex Spheroids
A high-throughput screen of multi-cell type tumor spheroids was designed to identify active combinations of DNA G-quadruplex stabilizer agents and targeted small molecules. Complex spheroids include a stromal component modeled by human endothelial cells (HUVEC) and fibroblasts modeled by human mesenchymal stem cells (MSCs). The concentration ranges selected for each drug and investigational agent were based upon clinically achievable concentrations if the clinical Cmax of the agent was known.
Compounds. The drugs and investigational agents: pidnarulex (CX-5461; NSC782164), APTO-253 (NSC789042), BRACO-19 (NSC847499), peposertib (NSC802822), ceralasertib (NSC780249), elimusertib (NSC800525), camonsertib (NSC841442), AZD-1390 (NSC803789), olaparib (NSC753686), talazoparib (NSC767125), ART-558 (NSC835418), sotorasib (NSC818433), MRTX-1133 (NSC836407), SN-38 (NSC673596), topotecan (NSC609699), etoposide (NSC141540), doxorubicin (NSC123127), gemcitabine (NSC613327), 5-fluorouracil (NSC19893), paclitaxel (NSC125973), vemurafenib (NSC761431), panobinostat (NSC761190), R-306465 (JNJ-16241199; NSC773264), adavosertib (NSC754352), TP-3654 (NSC805149), carboplatin (NSC241240), KSQ-4279 (NSC840948), and staurosporine (NSC755774) were obtained from the National Cancer Institute (NCI) Developmental Therapeutics Program Chemical Repository (34). The FDA-approved anticancer drug set is available from the NCI Developmental Therapeutics Program. […] The stock solutions were prepared in dimethyl sulfoxide (DMSO, Sigma-Aldrich, St. Louis, MO, cat. D2650) at 800-fold the tested concentration and stored at -70 degrees C prior to their use. All drugs and investigational agents were tested over a range starting from a high concentration at or near the clinical Cmax and decreasing in half-log increments. If the clinical Cmax for an agent had not been determined, the highest concentration tested was 10 microM.
2.3 Cell Culture. All cells were maintained in an incubator at 37 degrees C and 5% CO2 with 95% humidity. The PDC lines were cultured according to standard operating procedures established by the NCI PDMR. All PDCs were thawed and cultured in Matrigel-coated flasks prepared with a working solution of 1X Ham's F-12 nutrient mix, without supplementation (Invitrogen, cat. 11765054), 100 U/mL penicillin-streptomycin (Invitrogen, cat. 15140122), and 2.5% Matrigel (Corning Inc., cat. 354248) for the first three passages. The 857933-349-R-J2-PDC line was cultured in 6C/Colon 1B media, which includes advanced DMEM/F-12 (Thermo Fisher Scientific, cat. 12634028), 10 mM HEPES (Thermo Fisher Scientific, cat. 15630080), 1X GlutaMAX supplement (Thermo Fisher Scientific, cat. 35050061), 0.1 mg/mL primocin (InvivoGen, cat. ant-pm-2), 10% defined fetal bovine serum, heat inactivated (HyClone Laboratories Inc., cat. SH30070.03HI), 50% L-WRN conditioned media (ATCC, cat. CRL-3276), 1.25 mM N-Acetyl-L-cysteine (Sigma-Aldrich, cat. A9165), 10 mM nicotinamide (Sigma-Aldrich, cat. N0636), 1X B-27 supplement (Thermo Fisher Scientific, cat. 17504044), 1X N-2 supplement (Thermo Fisher Scientific, cat. 17502048), 10 microM Y-27632 dihydrochloride (Tocris Bioscience, cat. 1254), and 50 ng/mL human EGF recombinant protein (Thermo Fisher Scientific, cat. PHG0311). The 485176-168-R4-J1-PDC line was cultured in Panc media, which includes all 6C/Colon 1B media components plus 100 ng/mL human FGF-10 (Thermo Fisher Scientific, cat. 100-26), 500 nM SB-431542 (Selleckchem, cat. S1067), and gastrin (Tocris, cat. 3006).
[…]

[1] = second compound 0.0316 µM, first compound 0.0316 µM
[2] = second compound 0.0316 µM, first compound 0.1 µM
[3] = second compound 0.0316 µM, first compound 0.316 µM
[4] = second compound 0.0316 µM, first compound 1 µM
[5] = second compound 0.0316 µM, first compound 3.16 µM
[6] = second compound 0.0316 µM, first compound 10 µM
[7] = second compound 0.1 µM, first compound 0.0316 µM
[8] = second compound 0.1 µM, first compound 0.1 µM
[9] = second compound 0.1 µM, first compound 0.316 µM
[10] = second compound 0.1 µM, first compound 1 µM
[11] = second compound 0.1 µM, first compound 3.16 µM
[12] = second compound 0.1 µM, first compound 10 µM
[13] = second compound 0.316 µM, first compound 0.0316 µM
[14] = second compound 0.316 µM, first compound 0.1 µM
[15] = second compound 0.316 µM, first compound 0.316 µM
[16] = second compound 0.316 µM, first compound 1 µM
[17] = second compound 0.316 µM, first compound 3.16 µM
[18] = second compound 0.316 µM, first compound 10 µM
[19] = second compound 1 µM, first compound 0.0316 µM
[20] = second compound 1 µM, first compound 0.1 µM
[21] = second compound 1 µM, first compound 0.316 µM
[22] = second compound 1 µM, first compound 1 µM
[23] = second compound 1 µM, first compound 3.16 µM
[24] = second compound 1 µM, first compound 10 µM
[25] = second compound 3.16 µM, first compound 0.0316 µM
[26] = second compound 3.16 µM, first compound 0.1 µM
[27] = second compound 3.16 µM, first compound 0.316 µM
[28] = second compound 3.16 µM, first compound 1 µM
[29] = second compound 3.16 µM, first compound 3.16 µM
[30] = second compound 3.16 µM, first compound 10 µM
[31] = second compound 10 µM, first compound 0.0316 µM
[32] = second compound 10 µM, first compound 0.1 µM
[33] = second compound 10 µM, first compound 0.316 µM
[34] = second compound 10 µM, first compound 1 µM
[35] = second compound 10 µM, first compound 3.16 µM
[36] = second compound 10 µM, first compound 10 µM
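Note: spheroids exposed to compounds for one week before readout.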
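Throughout, for viability, T/C: percent viability relative to vehicle DMSO wells taken as 100%.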

CC(C)n1c(=O)n(C)c2cnc3cc(F)c(-c4ccc(OCCCN5CCCCC5)nc4)cc3c21 + CN(C)c1ccc(Nc2c3ccc(NC(=O)CCN4CCCC4)cc3nc3cc(NC(=O)CCN4CCCC4)ccc23)cc1
pIC50 (second compound 0.0316 µM): < 5.00 | pIC50 (second compound 0.1 µM): < 5.00 | pIC50 (second compound 0.316 µM): < 5.00 | pIC50 (second compound 1 µM): < 5.00 | pIC50 (second compound 3.16 µM): < 5.00 | pIC50 (second compound 10 µM): < 5.00 | viability, T/C [1]: 108% | viability, T/C [2]: 96.8% | viability, T/C [3]: 108% | viability, T/C [4]: 104% | viability, T/C [5]: 105% | viability, T/C [6]: 102% | viability, T/C [7]: 103% | viability, T/C [8]: 101% | viability, T/C [9]: 103% | viability, T/C [10]: 105% | viability, T/C [11]: 104% | viability, T/C [12]: 102% | viability, T/C [13]: 103% | viability, T/C [14]: 103% | viability, T/C [15]: 104% | viability, T/C [16]: 99.1% | viability, T/C [17]: 115% | viability, T/C [18]: 98.3% | viability, T/C [19]: 101% | viability, T/C [20]: 92.3% | viability, T/C [21]: 103% | viability, T/C [22]: 95% | viability, T/C [23]: 103% | viability, T/C [24]: 94% | viability, T/C [25]: 90.7% | viability, T/C [26]: 83.5% | viability, T/C [27]: 93.1% | viability, T/C [28]: 85.5% | viability, T/C [29]: 98.1% | viability, T/C [30]: 70.3% | viability, T/C [31]: 72.8% | viability, T/C [32]: 74.7% | viability, T/C [33]: 76% | viability, T/C [34]: 74.4% | viability, T/C [35]: 74.9% | viability, T/C [36]: 63.7%

CC1COCCN1c1cc(C2(O)CC3CCC(C2)O3)c2cnn(-c3ccn[nH]3)c2n1 (stereo unspecified) + CN(C)c1ccc(Nc2c3ccc(NC(=O)CCN4CCCC4)cc3nc3cc(NC(=O)CCN4CCCC4)ccc23)cc1
pIC50 (second compound 0.0316 µM): 5.03 | pIC50 (second compound 0.1 µM): < 5.00 | pIC50 (second compound 0.316 µM): < 5.00 | pIC50 (second compound 1 µM): < 5.00 | pIC50 (second compound 3.16 µM): < 5.00 | pIC50 (second compound 10 µM): 5.51 | viability, T/C [1]: 104% | viability, T/C [2]: 90.6% | viability, T/C [3]: 73.8% | viability, T/C [4]: 61.5% | viability, T/C [5]: 51.4% | viability, T/C [6]: 50.7% | viability, T/C [7]: 97.8% | viability, T/C [8]: 92.4% | viability, T/C [9]: 75.6% | viability, T/C [10]: 60.2% | viability, T/C [11]: 53.8% | viability, T/C [12]: 55.4% | viability, T/C [13]: 94.1% | viability, T/C [14]: 82.5% | viability, T/C [15]: 74.2% | viability, T/C [16]: 52.7% | viability, T/C [17]: 56.9% | viability, T/C [18]: 54.1% | viability, T/C [19]: 92.8% | viability, T/C [20]: 76% | viability, T/C [21]: 71% | viability, T/C [22]: 54.6% | viability, T/C [23]: 62.6% | viability, T/C [24]: 50.1% | viability, T/C [25]: 88.2% | viability, T/C [26]: 71.9% | viability, T/C [27]: 75.3% | viability, T/C [28]: 55% | viability, T/C [29]: 59.4% | viability, T/C [30]: 50% | viability, T/C [31]: 70.7% | viability, T/C [32]: 70.2% | viability, T/C [33]: 63.5% | viability, T/C [34]: 54.9% | viability, T/C [35]: 51.7% | viability, T/C [36]: 40.8%

O=C(c1cc(Cc2n[nH]c(=O)c3ccccc23)ccc1F)N1CCN(C(=O)C2CC2)CC1 + Cc1[nH]c2ccc(F)cc2c1-c1nc2c3cccnc3c3ncccc3c2[nH]1
pIC50 (second compound 0.0316 µM): < 5.00 | pIC50 (second compound 0.1 µM): < 5.00 | pIC50 (second compound 0.316 µM): < 5.00 | pIC50 (second compound 1 µM): < 5.00 | pIC50 (second compound 3.16 µM): < 5.00 | pIC50 (second compound 10 µM): < 5.00 | viability, T/C [1]: 108% | viability, T/C [2]: 95.7% | viability, T/C [3]: 98.1% | viability, T/C [4]: 96.8% | viability, T/C [5]: 118% | viability, T/C [6]: 93.4% | viability, T/C [7]: 113% | viability, T/C [8]: 112% | viability, T/C [9]: 92% | viability, T/C [10]: 100% | viability, T/C [11]: 98.5% | viability, T/C [12]: 101% | viability, T/C [13]: 102% | viability, T/C [14]: 110% | viability, T/C [15]: 106% | viability, T/C [16]: 97.1% | viability, T/C [17]: 103% | viability, T/C [18]: 90.9% | viability, T/C [19]: 92.5% | viability, T/C [20]: 99.7% | viability, T/C [21]: 95.7% | viability, T/C [22]: 97.6% | viability, T/C [23]: 103% | viability, T/C [24]: 96.5% | viability, T/C [25]: 99.2% | viability, T/C [26]: 105% | viability, T/C [27]: 98.3% | viability, T/C [28]: 98.6% | viability, T/C [29]: 100% | viability, T/C [30]: 108% | viability, T/C [31]: 99.9% | viability, T/C [32]: 100% | viability, T/C [33]: 101% | viability, T/C [34]: 99.8% | viability, T/C [35]: 99.3% | viability, T/C [36]: 98%
